Measured values reported in publication PMC3914206.

Experiments:
[1] = molecular target: T1, panel of 442 kinases (Homo sapiens, UniProt O14733); format: binding; conditions: Compound Concentration 10 µM
T1 construct: purchased KINOMEscan
T1 sequence (O14733 1-419): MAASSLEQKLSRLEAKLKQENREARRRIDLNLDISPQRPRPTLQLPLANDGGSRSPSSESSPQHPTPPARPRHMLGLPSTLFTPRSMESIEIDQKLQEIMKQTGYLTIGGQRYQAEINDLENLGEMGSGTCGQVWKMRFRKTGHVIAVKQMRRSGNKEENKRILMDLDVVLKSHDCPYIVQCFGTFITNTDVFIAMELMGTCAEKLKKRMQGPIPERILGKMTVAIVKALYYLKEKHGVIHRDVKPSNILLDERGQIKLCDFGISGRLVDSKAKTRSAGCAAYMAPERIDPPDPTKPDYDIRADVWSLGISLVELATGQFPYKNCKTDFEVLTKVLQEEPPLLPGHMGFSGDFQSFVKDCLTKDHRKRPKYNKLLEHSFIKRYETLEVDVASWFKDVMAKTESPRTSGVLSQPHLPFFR
Source text: (§1) We assessed the selectivity of members of this scaffold using the KINOMEscan methodology across a near comprehensive panel of 442 kinases [[18,27]].

[2] = molecular target: T2, panel of 442 kinases (Homo sapiens, UniProt Q9Y2K2); format: binding; conditions: Compound Concentration 10 µM
T2 construct: purchased KINOMEscan
Source text: as §1

T2 sequence (Q9Y2K2 whole entry): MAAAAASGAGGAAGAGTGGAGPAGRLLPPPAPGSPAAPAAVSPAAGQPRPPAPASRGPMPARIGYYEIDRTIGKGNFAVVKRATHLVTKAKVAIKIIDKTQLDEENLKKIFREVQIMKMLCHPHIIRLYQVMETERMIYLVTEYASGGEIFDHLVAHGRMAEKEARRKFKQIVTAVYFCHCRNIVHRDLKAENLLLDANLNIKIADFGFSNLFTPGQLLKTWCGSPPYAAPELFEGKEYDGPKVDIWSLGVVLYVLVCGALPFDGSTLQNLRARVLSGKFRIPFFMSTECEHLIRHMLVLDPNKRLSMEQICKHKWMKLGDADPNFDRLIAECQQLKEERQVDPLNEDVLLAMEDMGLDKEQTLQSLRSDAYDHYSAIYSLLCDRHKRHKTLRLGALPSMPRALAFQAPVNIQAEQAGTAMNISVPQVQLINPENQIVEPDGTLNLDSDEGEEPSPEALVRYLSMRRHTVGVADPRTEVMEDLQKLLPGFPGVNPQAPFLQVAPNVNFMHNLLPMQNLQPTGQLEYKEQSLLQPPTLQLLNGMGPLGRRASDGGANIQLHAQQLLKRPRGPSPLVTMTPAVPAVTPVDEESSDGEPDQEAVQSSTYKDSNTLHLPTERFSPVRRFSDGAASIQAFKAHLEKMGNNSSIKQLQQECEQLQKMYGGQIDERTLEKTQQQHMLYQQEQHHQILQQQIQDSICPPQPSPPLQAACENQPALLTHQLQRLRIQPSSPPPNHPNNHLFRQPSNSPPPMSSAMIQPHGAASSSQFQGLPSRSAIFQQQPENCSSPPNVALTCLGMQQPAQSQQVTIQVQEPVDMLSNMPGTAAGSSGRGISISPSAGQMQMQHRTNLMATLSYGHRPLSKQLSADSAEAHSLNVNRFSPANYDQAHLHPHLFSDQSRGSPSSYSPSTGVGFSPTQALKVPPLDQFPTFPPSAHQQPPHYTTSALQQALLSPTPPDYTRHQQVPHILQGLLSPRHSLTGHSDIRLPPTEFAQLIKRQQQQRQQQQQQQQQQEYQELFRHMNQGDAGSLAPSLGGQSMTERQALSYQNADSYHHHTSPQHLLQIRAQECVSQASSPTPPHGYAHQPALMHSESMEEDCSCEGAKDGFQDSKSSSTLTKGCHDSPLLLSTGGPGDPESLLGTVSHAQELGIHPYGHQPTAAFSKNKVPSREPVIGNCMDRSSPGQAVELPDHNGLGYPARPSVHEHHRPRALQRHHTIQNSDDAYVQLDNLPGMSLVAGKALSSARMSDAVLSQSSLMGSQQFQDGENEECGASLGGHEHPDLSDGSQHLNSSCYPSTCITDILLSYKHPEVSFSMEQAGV

| SMILES | KINOMEscan: MKK7 [1] | KINOMEscan: QSK [2] |
| --- | --- | --- |
| COc1cc(C(=O)N2CCC(N3CCN(C)CC3)CC2)ccc1Nc1ncc2c(n1)N(C)c1ccccc1C(=O)N2C [15 (LRRK2-IN-1)] | 100 | 100 |
| COc1cc(C(=O)N2CCC(N3CCN(C)CC3)CC2)ccc1Nc1ncc2c(n1)N(C1CCCC1)c1ccccc1C(=O)N2C [Compound 25, 11-cyclopentyl-2-((2-methoxy-4-(4-(4-methylpiperazin-1-yl)piperidine-1-carbonyl)phenyl)amino)-5-methyl-5H-benzo[e]pyrimido[5,4-b][1,4]diazepin-6(11H)-one] | 100 | 100 |
| CCOc1cc(C(=O)N2CCC(N3CCN(C)CC3)CC2)ccc1Nc1ncc2c(n1)N(C1CCCC1)c1ccccc1C(=O)N2C [Compound 26] | 88 | 100 |
